Like-named read-outs stand apart in the source and are kept apart here. Marks after values point to notes of the source that are not given here. Where only a bound is given, the exact number is not on record here.

Series [1] has as its system PrP-res formation in scrapie infected neuroblastoma (ScNB) cells. The series is classed as cell-based, mouse. The conditions noted are these: for % control PrP-res (at 10 μg TSP/ml): 10 μg/ml (~10 μM) meso-porphyrin, relative to untreated ScNB cells; for IC50: ScNB cells.
The target of series [2] is conversion of hamster PrP-sen to PrP-res (Mesocricetus auratus, UniProt P04273). In kind it is biochemical. The conditions noted are these: 10 μg/ml tetrapyrrole; for conversion, % of control: mean SD.
For series [3] the following is noted: have been reported; cited from earlier work.
For series [4] the following is noted: mouse, in vivo, ip.
[5] abbreviates: footnote b values are half-way between 10-fold dilutions (~±50%), read-out: IC50 (μM), PrP-res formation, meso-porphyrins.

Sequence of conversion of hamster PrP-sen to PrP-res (P04273 23-230 limits assumed): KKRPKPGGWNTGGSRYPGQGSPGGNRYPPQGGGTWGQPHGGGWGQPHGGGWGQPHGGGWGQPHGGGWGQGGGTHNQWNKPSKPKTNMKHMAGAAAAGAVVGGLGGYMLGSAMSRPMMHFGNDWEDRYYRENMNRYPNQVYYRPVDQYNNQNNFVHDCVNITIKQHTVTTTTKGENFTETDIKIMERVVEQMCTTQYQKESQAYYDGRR

In the case of `C1=Cc2nc1c(-c1ccncc1)c1ccc([nH]1)c(-c1ccncc1)c1nc(c(-c3ccncc3)c3ccc([nH]3)c2-c2ccncc2)C=C1` [T(4-Py)P], the “% control PrP-res (at 10 μg TSP/ml)” value in series [1] is recorded as 12 ± 0^a %.
Consider `C[n+]1ccccc1-c1c2nc(c(-c3cccc[n+]3C)c3ccc([nH]3)c(-c3cccc[n+]3C)c3nc(c(-c4cccc[n+]4C)c4ccc1[nH]4)C=C3)C=C2` [T(N-Me-2-Py)P], for which the “inhibition of cell-free conversion, in words” value in series [2] is “not significantly inhibitory”. For the same compound, the “% control PrP-res (at 10 μg TSP/ml)” value in series [1] is on record as 4 ± 3%. Moreover, the IC50 (in general, the midpoint of a concentration-inhibition curve) in series [1] (setting [5]) was approximately 5 µM.
For `C[n+]1cccc(-c2c3nc(c(-c4ccc[n+](C)c4)c4ccc([nH]4)c(-c4ccc[n+](C)c4)c4nc(c(-c5ccc[n+](C)c5)c5ccc2[nH]5)C=C4)C=C3)c1` [T(N-Me-3-Py)P], the “% control PrP-res (at 10 μg TSP/ml)” value in series [1] is listed as 50 ± 0^a %.
As for `C[n+]1ccc(-c2c3nc(c(-c4cc[n+](C)cc4)c4ccc([nH]4)c(-c4cc[n+](C)cc4)c4nc(c(-c5cc[n+](C)cc5)c5ccc2[nH]5)C=C4)C=C3)cc1` [T(N-Me-4-Py)P], the “conversion, % of control” value in series [2] came to 66±18%. Besides, the “% control PrP-res (at 10 μg TSP/ml)” value in series [1] was 50 ± 0%.
In the case of `O=C(O)c1ccc(-c2c3nc(c(-c4ccc(C(=O)O)cc4)c4ccc([nH]4)c(-c4ccc(C(=O)O)cc4)c4nc(c(-c5ccc(C(=O)O)cc5)c5ccc2[nH]5)C=C4)C=C3)cc1` [T(Ph-4-COOH)P], in series [1], the “% control PrP-res (at 10 μg TSP/ml)” value came out at 50 ± 0%.
On to `C[N+](C)(C)c1ccc(-c2c3nc(c(-c4ccc([N+](C)(C)C)cc4)c4ccc([nH]4)c(-c4ccc([N+](C)(C)C)cc4)c4nc(c(-c5ccc([N+](C)(C)C)cc5)c5ccc2[nH]5)C=C4)C=C3)cc1` [T(Ph-4-NMe^+3)P], for which the “inhibition of cell-free conversion, in words” value in series [2] is “not significantly inhibitory”. In addition, in series [1] (setting [5]), the IC50 was determined as 5 ± 0.8 µM.
As to `O=S(=O)(O)c1ccc(-c2c3nc(c(-c4ccc(S(=O)(=O)O)cc4)c4ccc([nH]4)c(-c4ccc(S(=O)(=O)O)cc4)c4nc(c(-c5ccc(S(=O)(=O)O)cc5)c5ccc2[nH]5)C=C4)C=C3)cc1` [T(Ph-4-SO^−3)P], in series [3], the tolerability result is given as “well tolerated”. The “% control PrP-res (at 10 μg TSP/ml)” value in series [1] stood at 44 ± 31%. Also, the IC50 in series [1] (setting [5]) is approximately 5 µM.
Turning to Phthalocyanine tetrasulfonate [PcTS], the “time detectable in the spleen after treatment had stopped” value in series [4] is listed as “at least 8 months”. Further, in series [2], the “conversion, % of control” value came to 0±0%. Further, the “% control PrP-res (at 10 μg Pc/ml)” value in series [1] (10 μg Pc/ml (about 10 μM) in medium, 3-4 days, band intensity relative to untreated ScNB cells, mean ± SD) was less than 3%. Also, the IC50 in series [1] (concentration giving 50% inhibition of PrP-res formation relative to control, footnote a values are half-way between 10-fold dilutions (±50%), read-out: IC50 (μM), PrP-res formation, phthalocyanines) was found to be 0.5 µM.

The record behind these values is patent US6632808B1 (priority 1998, dated 2003).
